# Results from patent US20260174858A1, “TARGETING THE m6A MRNA DEMETHYLASE FTO” (University of Virginia Patent Foundation, priority 2022, published 2026).
# Experiments:
# [1] = tested on: Wild type BMDMs; experiment: LPS-induced IL-6 release on BMDMs (ELISA); format: cell-based, mouse; details: FB23-2 20 uM pre-treatment 1 hour, then 250 ng/ml LPS 6 hours, p<0.0001
# Experimental: Primary WT or mutant mouse bone marrow derived macrophages (BMDMs) were isolated as previously described (4). BMDMs were cultured in IMDM (Gibco) basal medium containing 10% fetal bovine serum (FBS), 30% L929 supernatants, nonessential amino acids, sodium pyruvate, 2-mercaptoethanol, and antibiotics. THP-1 cells were cultured in RPMI 1640 medium with 10% FBS and antibiotics. Human RPE cells were isolated as previously described and cultured in DMEM medium with 10% FBS and antibiotics. All cells were maintained at 37° C. in a 5% CO2 environment.
# (§1) Secreted IL-6 in the BMDMs medium or serum IL-6, TNF-alpha, and IL-1alpha were detected by ELISA (Mouse IL-1 alpha/IL-1F1 DuoSet, R&D Systems, DY400; Mouse IL-6 DuoSet, R&D Systems, DY406; Mouse TNF-alpha DuoSet, R&D Systems, DY410) according to the manufacturer's instructions.
# [2] = tested on: Wild type C57BL/6J mice; experiment: LPS model of septic shock, survival; format: in vivo, mouse; details: FTOi 20 mg/kg i.p. 16 hours before, 10 mg/kg LPS challenge; log-rank p<0.05 vs vehicle
# Experimental: (§2) To induced septic shock model, male or female C57BL/6 mice (6 to 10 weeks old) were primed with 10 mg/kg poly(I:C) via intraperitoneal injection. 6 hours later, primed mice were injected with 10 mg/kg LPS and monitored three time daily for a total 5 days. For FTO inhibitor treatment, Wild type C57BL/6J mice were pretreated with 20 mg/kg FB23-2 for 16 hours before sepsis induction. Next day, 20 mg/kg FB23-2 together with 10 mg/kg poly(I:C) were intraperitoneally injected, following with LPS challenge at 6 hours after poly(I:C) priming.
# [3] = tested on: Wild type C57BL/6J mice; experiment: Serum cytokines release in the LPS model of sepsis (ELISA); format: in vivo, mouse; details: FTOi 20 mg/kg i.p., 10 mg/kg LPS, serum at 10 hours after LPS
# Experimental: as §1, §2
# [4] = tested on: Wild type C57BL/6J mice; experiment: VEGFA ELISA of RPE-choroid after laser injury; format: in vivo, mouse; details: FTOi i.p. plus 25 ng intravitreous, day 3 after laser injury
# Experimental: Laser photocoagulation (532 nm, 180 mW, 100 ms, 75 μm) (OcuLight GL; IRIDEX Corp., Mountain View, CA, USA) was performed bilaterally (volume studies: 4 spots per eye; RNA analyses: 10 spots per eye) in 6- to 8-week-old mice on day 0 to induce CNV as previously described 1-3. For drug treatment, the mice pretreated with FTO inhibitor (FB23-2, SML2694, Sigma) or vehicle (DMSO) through intraperitoneal injection (i.p, 2 mg/kg). Then, the mice were subjected to laser photocoagulation followed by intravitreous injection of the FTO inhibitor (25 ng/0.5 μl per eye) or vehicle. At day 3 after laser injury, the mice were administered the FTO inhibitor (2 mg/kg) or vehicle via intraperitoneal injection. At day 7, the eyes were collected for fluorescein labeled-isolectin B4 and F4/80 staining and for neovascular volume quantification.
# The RPE-choroid complex was isolated from mouse eyes on day 3 after laser injury and treatment with FTO inhibitor or vehicle. […] The lysate was centrifuged at 20,000×g for 15 minutes at 4° C., and total protein in the lysates was quantified using the Thermo Scientific™ Pierce™ BCA™ Protein Assay (Fisher Scientific, PI23225, USA). VEGFA protein levels in the supernatants were measured by VEGF DuoSet ELISA (R&D Systems, DY493, USA), following the manufacturer's instructions. […]
# [5] = tested on: human ARPE-19 cells; experiment: VEGFA release in human ARPE-19 cells; format: cell-based
# [6] = Cell viability under FTO inhibition; format: cell-based
# [7] = In vivo retinal toxicity; details: FTO inhibition
compound,measurement,setting,value
Cc1noc(C)c1-c1cc(Cl)c(Nc2ccccc2C(=O)NO)c(Cl)c1 [FB23-2],LPS-induced IL-6 release,[1],reduces LPS-induced IL-6 release
same,Survival (mice death),[2],rescues the mice death
same,"Serum cytokines release (IL-6, TNF-α, IL-1α)",[3],impairs serum cytokines release
same,VEGFA protein levels in laser treated RPE-choroid tissue,[4],inhibits VEGFA release in vivo
same,VEGFA protein levels in laser treated RPE-choroid tissue,[4]; listed as selective inhibitor,suppressed VEGFA protein levels
same,VEGFA release,[5],suppressed the VEGFA release
same,Adverse effects on cell viability,[6],minimal adverse effects on cell viability
same,In vivo retinal toxicity,[7],did not observe in vivo retinal toxicity
